Tests used:
BAR-T cells [1] = assay: Real-time RT-PCR mRNA expression, normalized to β actin; assay type: cell-based, human; conditions: for molecular changes (mRNA), particularly transformation marker TC22: A alone (pH4) up to 34 weeks
Method: (§1) Cell line medium and cell culture—BAR-T cells were grown in special supplemented keratinocyte medium (KBM2) from Cambrex Bioscience (East Rutherford, N.J., USA), as per the protocol described by Jaiswal et al. Hydrochloric acid (A) was used to adjust the pH of the culture medium to experimental conditions. The bile acid, glycochenodeoxycholic acid, GCDA (Sigma, St. Louis, […]., USA), was diluted to optimum working concentration of 200 μM (B) with the culture medium adjusted to pH4 (A+B). 0.1×10^6 cells growing on six-well plates were incubated in A or A+B for 5 min in 24 h. For chronic exposure, cells were exposed for 5 min everyday to A only for up to 34 weeks and A+B for up to 84 weeks. No treatment was done on the day the cells were passed. The time was optimized from similar studies, showing that 5 min was sufficient for induction of signal transduction pathways regulating cellular machinery without cell damage. The cells were rinsed with phosphate buffered saline (PBS) before and after incubation with desired treatment medium. The control untreated cells were grown in parallel in the special medium as mentioned above at pH7.4. A portion of the cells were harvested every 4-6 weeks. Morphological Changes and Growth analysis—BAR-T cells that were exposed to A+B at various weeks were plated at 1×10^5 cells per well in 12 well plates and counted in triplicate using a Beckman Coulter Counter (Vi-CELL1.00). Cells were counted periodically and morphological changes were examined weekly. Foci assay: Cells were plated at 5×10^5 cells per 100 mm dishes (35). Untreated cells grown in parallel were also plated. Cells were grown for 4-5 weeks with regular medium changes beyond 100% confluency, fixed with 10% methanol, 10% acetic acid solution, and stained with 20% ethanol, 0.4% crystal violet for 5 min. Growth in soft agar: Each well of the six well plates was layered with base agar layer containing 0.8% agar in grown medium. […] Large (>1 mm) and small colonies (<1 mm) were visually identified, photographed and counted separately. […]

BAR-T cells [2] = assay: Morphological changes; assay type: cell-based, human
Method: as §1, with “The cells were rinsed with phosphate buffered saline (PBS) before and after incubation with desired treatment medium. The control untreated cells were grown in parallel in the special medium as mentioned above at pH7.4. A portion of the cells were harvested every 4-6 weeks.” left out, “weekly.” for “weekly. Foci assay: Cells were plated at 5×10^5 cells per 100 mm dishes (35). Untreated cells grown in parallel were also plated. Cells were grown for 4-5 weeks with regular medium changes beyond 100% confluency, fixed with 10% methanol, 10% acetic acid solution, and stained with 20% ethanol, 0.4% crystal violet for 5 min. Growth in soft agar: Each well of the six well plates was layered with base agar layer containing 0.8% agar in grown medium.”

Compound	molecular changes (mRNA), particularly transformation marker TC22 (BAR-T cells [1])	molecular changes (mRNA), particularly transformation marker TC22 (BAR-T cells [1]; listed as Acid (pH4))	P53 expression (BAR-T cells [1]; A alone up to 34 weeks)	morphological changes (BAR-T cells [2]; chronic exposure to A alone, up to 34 weeks)	effect on BAR-T cells (BAR-T cells [2]; B alone up to 6 weeks, initial study)
Cl [A, Hydrochloric acid]	did not show the above molecular changes	remained mostly unchanged	minor increase	did not show any morphological changes	–
CC(CCC(=O)NCC(=O)O)C1CCC2C3C(O)CC4CC(O)CCC4(C)C3CCC12C (centres unmarked) [B, glycochenodeoxycholic acid, reference compound]	–	–	–	–	no appreciable effect
